Where “and” joins values, the source holds several entries; their conditions need not be identical. Equal values may be shown once.
What was measured:
HIV-1NL4-3 = assay: hCD4+-Rag2-/-γc-/- mice infected with HIV-1 four to five days after adoptive transfer; assay type: in vivo
Source text: Age-matched, 6-10 week-old Rag2^−/−γc^−/− mice were conditioned with clodronate and sublethal irradiation (van Rijn et al., 2003), and injected intraperitoneally with 2.5×10^6 transduced CD4^+ T cells (FIG. 68A,B).
Rag2^−/−γc^−/− mice on a BALB/c background (provided by M. Ito; Central Institute for Experimental Animals, Kawasaki, Japan) were bred and maintained under specific pathogen-free conditions in accordance with the guidelines of the animal facility at the Institute for Research in Biomedicine. CL2 MBP (clodronate) was from Roche Diagnostics (Mannheim, Germany). Preparation of liposomes containing CL2 MBP was done as described previously (Van Rooijen and Sanders, 1994). 6-10 week-old mice received 100 ul of clodronate liposomes intraperitoneally (i.p.) 24 hours prior to irradiation using a single sublethal dose of 4.0 Gray (Gy) from a Cesium 137 source (Biobeam 8000, STS GmbH, Braunschweig, Germany) at 3.75 Gy/min. […] CD4^+ T cell engraftment and maintenance in mice was measured by flow cytometry. To obtain peripheral blood cells and plasma, mice were bled from the retro-orbital venous sinus under anesthesia and red blood cells were lysed. When sacrificed, single cell suspensions from organs were prepared. For FACS analysis monoclonal antibodies against the following antigens were used: CD3 (UCHT1), CD4 (13B8.2), CD8 (B9.11), p24 (clone KC57) (all Immunotech/Beckman Coulter, Marseille, France), CD45 (HI30) (Caltag, Burlingame, Calif.). Intracellular staining for p24 was performed on single cell suspensions from mesenteric lymph nodes and thymus following staining with anti-CD3 antibody. Cells were washed, permeabilized, and fixed by treatment with BD Cytofix/Cytoperm (BD Pharmingen) and stained with anti-p24 antibody in BD Permwash solution (BD Pharmingen) following the manufacturer's instructions. Plasma HIV RNA concentrations were determined by Cobas Amplicor RT-PCR assay (Roche Diagnostics, Basel, Switzerland). Immunohistochemical stainings were performed as previously described (Baenziger et al., 2006). To assess nonspecific binding, tissue from untransplanted and uninfected transplanted mice was stained as controls.
Rag2^−/−γc^−/− mice on a BALB/c background (provided by M. Ito; Central Institute for Experimental Animals, Kawasaki, Japan) were bred and maintained under specific pathogen-free conditions in accordance with the guidelines of the animal facility at the Institute for Research in Biomedicine (Bellinzona) and the Swiss Federal Veterinary Office (Bern). Mouse experiments were reviewed and approved by the Veterinary Commission of the State of Ticino (Bellinzona, Switzerland). CL2 MBP (clodronate) was from Roche Diagnostics (Mannheim, Germany). Preparation of liposomes containing CL2 MBP was done as described previously (68). 6-10 week-old mice received 100 ul of clodronate liposomes intraperitoneally (i.p.) 24 hours prior to irradiation using a single sublethal dose of 4.0 Gray (Gy) from a Cesium 137 source (Biobeam 8000, STS GmbH, Braunschweig, Germany) at 3.75 Gy/min.

cell-associated HIV-1 = assay: hCD4+-Rag2-/-γc-/- mice infected with cell-associated HIV-1; assay type: in vivo
Method: Furthermore, the previous infections were initiated with cell-free HIV-1. […] Untransduced (GFP^−) CD4^+ cells from the same donor were cultured side by side and infected with CXCR4-tropic HIV-1 prior to infection of reconstituted mice. […] Peripheral blood was analyzed one, two, and three weeks after infection and mice were sacrificed three weeks after infection (FIG. 71A).

HIV-1 [1] = conditions: quantitative PCR, Jurkat
Method: (§1) Since the objective was to engineer a fully human HIV-1 restriction factor, hCypA was the fused at 10 different positions along the length of hT5α (FIG. 44A).
Total cellular DNA was extracted from 2×10^6 Jurkat T cells using the DNeasy Blood and Tissue kit (Qiagen). qPCR was performed with the Applied Biosystems 7900HT system, using 250 ng total DNA and Taqman Gene Expression master mix (Applied Biosystems). Each experimental condition was performed in triplicate and data analyzed using the SDS software, version 2.2.2 (Applied Biosystems).

HIV-1 [2] = conditions: U937, CEM-SS, SUP-T1, H9, HUH-7, CRFK, 293T
Source text: as §1

hT5Cyp: human TRIM5α fused at serine 322 to human cyclophilin A, SEQ ID NO:12
reduction in mean viral load vs hT5CypH126Q (HIV-1NL4-3; Example 4, n=5 and n=4): 22 fold | mean peripheral blood CD45^+ cells (HIV-1NL4-3; four weeks post-infection): 6.7% | percentage CD45^+ cells higher than hT5CypH126Q (HIV-1NL4-3; four weeks post-infection): 15 fold | Viral load (HIV-1NL4-3; individual mice, week 2, listed as wt): 103208 copies RNA/ml and 46007 copies RNA/ml and 43551 copies RNA/ml and 251320 copies RNA/ml and 66416 copies RNA/ml and 358800 copies RNA/ml and 566835 copies RNA/ml and 3811676 copies RNA/ml and 492800 copies RNA/ml and 27826 copies RNA/ml | Peripheral Blood (2 wks. postinfection) CD4 (HIV-1NL4-3; individual mice, listed as wt): 1 percentage of total nucleated cells and 0.44 percentage of total nucleated cells and 0.33 percentage of total nucleated cells and 1.56 percentage of total nucleated cells and 2.7 percentage of total nucleated cells and 7.7 percentage of total nucleated cells and 15.1 percentage of total nucleated cells and 28.3 percentage of total nucleated cells and 1.89 percentage of total nucleated cells and 1.1 percentage of total nucleated cells | Peripheral Blood (2 wks. postinfection) CD45 (HIV-1NL4-3; individual mice, listed as wt): 1.08 percentage of nucleated cells and 0.47 percentage of nucleated cells and 0.24 percentage of nucleated cells and 1.64 percentage of nucleated cells and 2.75 percentage of nucleated cells and 7.86 percentage of nucleated cells and 15.6 percentage of nucleated cells and 28.9 percentage of nucleated cells and 2.12 percentage of nucleated cells and 1.16 percentage of nucleated cells | Viral load (Corrected for CD4 count) (HIV-1NL4-3; individual mice, listed as wt): 101231 and 104916 and 192227 and 159325 and 24321 and 47206 and 37382 and 134446 and 260305 and 25410 | mean peripheral blood CD4^+ cells (HIV-1NL4-3; two weeks post-infection): 6% | percentage CD4^+ cells higher than hT5CypH126Q (HIV-1NL4-3; two weeks post-infection): 34 fold | p24^+ of total human T cells in the infected thymus (cell-associated HIV-1; mouse, in vivo): 0.9% | protection of total CD3^+ T cell numbers in the thymus (cell-associated HIV-1; mouse, in vivo): 3.7 fold | CD3^+ T cells in thymus (cell-associated HIV-1; n=2): 2×10^7 | reduction in mean viral load vs hT5CypH126Q (cell-associated HIV-1; one week post-infection): 9.7 fold | CD4^+ T cell numbers relative to initial levels (cell-associated HIV-1; peripheral blood, three weeks post-infection): ≥ 40% | p24^+ of GFP^hi cells (cell-associated HIV-1; thymus): few | p24^+ of GFP^neg/lo cells (cell-associated HIV-1; thymus): 3.2% | reduction in total numbers of GFP^− p24^+ cells vs hT5CypH126Q (cell-associated HIV-1; thymus): > 3.3 fold | reduction in mean viral load vs hT5CypH126Q (cell-associated HIV-1; two weeks post-infection): 4.3 fold | accumulation of viral cDNA (HIV-1 [1]): blocked the accumulation of viral cDNA | HIV-1 restriction in further cell lines (HIV-1 [2]): restricted HIV-1
